Measured values: patent US20070207093A1, “Hydrazone derivatives and uses thereof” (Linquagen Corp., priority 2005, published 2007)

Assays:
Type in all cases: cell-based
human TRPM5 ion channel = molecular target: T1, human TRPM5 ion channel (Homo sapiens, UniProt Q9NZQ8); experiment: TRPM5 FLIPR membrane potential screening assay (ATP stimulation); settings: 10 μM compound; HEK293 cells stably expressing human TRPM5; 3 μM ATP stimulation; versus negative control wells; read-out: TRPM5 Activity (percent inhibition)
T1 construct: expressed in transfected cells
T1 sequence (Q9NZQ8 1-1165): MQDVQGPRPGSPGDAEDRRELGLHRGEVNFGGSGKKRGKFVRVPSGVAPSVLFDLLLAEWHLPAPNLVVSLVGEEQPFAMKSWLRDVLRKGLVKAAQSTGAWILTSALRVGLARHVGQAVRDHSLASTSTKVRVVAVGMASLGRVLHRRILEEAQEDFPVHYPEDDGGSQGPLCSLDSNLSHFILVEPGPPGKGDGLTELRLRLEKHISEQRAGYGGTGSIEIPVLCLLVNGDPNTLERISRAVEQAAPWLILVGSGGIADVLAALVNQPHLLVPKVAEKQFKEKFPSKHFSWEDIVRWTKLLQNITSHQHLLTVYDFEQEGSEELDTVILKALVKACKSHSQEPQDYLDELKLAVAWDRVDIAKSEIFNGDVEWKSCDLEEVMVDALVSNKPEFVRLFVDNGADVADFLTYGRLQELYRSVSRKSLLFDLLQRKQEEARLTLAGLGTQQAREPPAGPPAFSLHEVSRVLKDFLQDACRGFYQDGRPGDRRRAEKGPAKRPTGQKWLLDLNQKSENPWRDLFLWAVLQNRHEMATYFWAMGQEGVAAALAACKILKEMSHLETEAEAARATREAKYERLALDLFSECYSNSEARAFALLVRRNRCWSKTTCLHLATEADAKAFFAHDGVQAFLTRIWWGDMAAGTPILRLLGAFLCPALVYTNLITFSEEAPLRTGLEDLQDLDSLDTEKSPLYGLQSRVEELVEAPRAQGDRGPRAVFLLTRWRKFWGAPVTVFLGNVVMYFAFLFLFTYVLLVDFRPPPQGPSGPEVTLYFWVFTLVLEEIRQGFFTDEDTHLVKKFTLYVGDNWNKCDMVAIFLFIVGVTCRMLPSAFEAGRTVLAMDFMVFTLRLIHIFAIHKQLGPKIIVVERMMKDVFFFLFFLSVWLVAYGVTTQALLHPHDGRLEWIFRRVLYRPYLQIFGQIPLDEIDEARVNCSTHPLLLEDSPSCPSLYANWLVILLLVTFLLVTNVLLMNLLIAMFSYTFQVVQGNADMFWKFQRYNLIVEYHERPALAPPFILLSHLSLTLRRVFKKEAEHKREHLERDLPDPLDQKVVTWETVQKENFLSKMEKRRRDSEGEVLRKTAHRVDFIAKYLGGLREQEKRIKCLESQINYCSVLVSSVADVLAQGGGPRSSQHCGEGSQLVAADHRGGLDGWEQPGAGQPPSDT
Method: The activity of human TRPM5 ion channel was measured in live cells on a fluorescent imaging plate reader (FLIPR). The basis of the assay (shown in FIG. 1) is the calcium-dependent activation of the ion channel which occurs via by activation of a G-protein coupled receptor (GPCR). GPCR activation by an appropriate agonist causes a transient increase in […] Ca^2+ ion concentration which in turn causes the ion channel to open, letting in Na^+ ions. This influx causes a change in the membrane potential of the cell which can be monitored as a change in the fluorescent signal from voltage-dependent (membrane potential) fluorescent dyes.
For the screening assay, the human TRPM5 gene was cloned, put into HEK293 cells, and a stable, high expression clone was used for screening. Cells were grown in standard media at 37° C. The day before screening, the cells were removed from flasks and added to 384 well clear bottom plates (8K cells in 20 μL/well). On the assay day, 20 μL of membrane potential dye (Part No. R8123, Molecular Devices Corp.) was added to the cells and dye was allowed to be taken up, i.e., load, into the cells for 1 hr at 37° C. […] The assay was started by addition of 10 μL of solution from the compound plate into the cell plate. During this process, continuous fluorescent recordings were made simultaneously for all wells. After addition of the compound solution, the tips were automatically washed and a stimulation solution of 3 μM ATP (an agonist for an endogenous purinurgic GPCR, was added to all wells of the cell plate. The height of the response was calculated and percent inhibition values, versus negative control wells, was calculated for the test samples.
(§1) Unless otherwise indicated, the data in the table below were determined using the three assays described above, providing percent inhibition data at 10 μM.

human TRPM5 = molecular target: T2, human TRPM5 (Homo sapiens, UniProt Q9NZQ8); experiment: Whole-cell electrophysiology of TRPM5 current; settings: HEK293; HEK cells stably transfected with human TRPM5, pre-treated with 10 μM; current activated by intracellular calcium dialysis (170 nM free calcium); FIG. 2B
T2 construct: expressed in transfected cells; host or cells: HEK cells, stably transfected
T2 sequence (Q9NZQ8 1-1165): T1 sequence (Q9NZQ8 1-1165)
Method: Standard whole-cell recordings were obtained from HEK cells stably transfected with human TRPM5. Internal solution contained 135 mM CsGlutamate, 10 mM HEPES, 2 mM MgATP, 5 mM CaCl2 and 10 mM EGTA. External solution was HBSS (Gibco) buffered with 20 mM HEPES to pH 7.2. Currents were recorded with Multiclamp 700B amplifier using PClamp software; filered at 1 kHz, sampled at 5 kHz. Holding potential was −80 mV. TRPM5 current was activated by intracellular calcium dialysis (170 nM free calcium) and sampled with 200 ms ramps from −80 to 80 mV at 1 Hz. Current amplitudes were measured at −80 and 80 mV potted versus time.

[1] = tested on: GPCR-mediated calcium activation step; experiment: Calcium counterscreen (calcium sensitive dye, ATP stimulation); settings: Homo sapiens, 10 μM compound, same HEK293 TRPM5 cells, Calcium3 dye, read-out: Calcium Counterscreen (percent inhibition)
Method: (§2) Two counterscreen assays were run on separate cell plates utilizing the same cells as described above. In the calcium counterscreen, the cells were loaded with a calcium sensitive dye (Calcium3 Dye, Part no. 8090, Molecular Devices Corp.) and stimulated by ATP to check for compounds that block the GPCR-mediated calcium activation step. In the KCl counterscreen, cells are stimulated with 10 mM KCl instead of ATP to check for compounds that inhibit the membrane potential response by virtue of being non-specific ion channel blockers.
as §1

[2] = tested on: membrane potential response (non-specific ion channel block); experiment: KCl counterscreen (membrane potential dye, 10 mM KCl stimulation); settings: Homo sapiens; 10 μM compound; same HEK293 TRPM5 cells; 10 mM KCl instead of ATP; read-out: KC1 Counterscreen (percent inhibition)
Method: as §2, §1

Row | Compound | inhibition at 10 µM (human TRPM5 ion channel) [%] | inhibition at 10 µM (human TRPM5) [%] | inhibition at 10 µM [1] [%] | inhibition at 10 µM [2] [%]
1 | COc1ccc(/C=N/NC(=O)Cc2cccc3ccccc23)cc1OC [Example 3, (E)-N′-(3,4-Dimethoxybenzylidene)-2-(naphthalene-1-yl)acetohydrazide] | 97 | > 90 | 2 | 6
2 | C(=N\N(Cc1ccccc1)c1ccccc1)/c1ccncc1 [Example 16, (E)-4-((2-Benzyl-2-phenylhydrazono)methyl)pyridine] | 74 | – | -6 | -2
3 | O=C(N/N=C\c1ccc[nH]1)C12CC3CC(CC(C3)C1)C2 [Example 17, (Z)-N′-((1H-Pyrrol-2-yl)methylene)tricyclo [3.3.1^3,7]decane-3-carbohydrazide] | 40 | – | -13 | 8
4 | CCN(CCO)c1ccc(N/N=C2\C(=O)C=Cc3ccccc32)cc1 [Example 18, (Z)-1-(2-(4-(Ethyl-(2-hydroxyethyl)-amino)phenyl)hydrazono)naphthalen-2(1H)-one] | 87 | – | -9 | 33
5 | CN(/N=C/c1ccc(O)cc1O)c1ncc(Cl)cc1C(F)(F)F [Example 19, (E)-4-((2-(5-Chloro-3-(trifluoromethyl)pyridini-2-yl)-2-2-methylhydrazono)methyl)benzene-1,3-diol] | 65 | – | 5 | 36
6 | Cc1ccc(NCC(=O)N/N=C/c2ccc(N3CCOCC3)c([N+](=O)[O-])c2)cc1C [Example 20, (E)-2-(3,4-Dimethylphenylamino)-N′-(4-morpholino-3-nitrobenzylidene)acetohydrazide] | 70 | – | -3 | 16
7 | O=[N+](O)c1ccc(N2CCCC2)cc1N/N=C1\CN2CCC1CC2 [Example 21] | 51 | – | 6 | 42
8 | CCN(CC)c1ccc(/C=N/Nc2nc3ccccc3[nH]2)c(O)c1 [Example 22, (E)-2-((2-(1H-Benzo[d]imidazol-2-yl)hydrazono)methyl)-5-(diethylamino)phenol] | 58 | – | -23 | 32
